Data: patent US8673910B2, “Proteasome inhibitors for selectively inducing apoptosis in cancer cells” (H. Lee Moffitt Cancer Center and Research Institute, priority 2008, dated 2014)
Read-outs that look alike come from different tables or passages of the source.

Tests used:
[1] = target: T1, chymotrypsin-like (CT-L) activity of purified 20S rabbit proteasome (Oryctolagus cuniculus, UniProt G1T4Q9); assay: Proteolytic activity of purified 20S proteasome, fluorogenic substrate Suc-Leu-Leu-Val-Tyr-AMC; format: biochemical
T1 sequence (G1T4Q9 1-263): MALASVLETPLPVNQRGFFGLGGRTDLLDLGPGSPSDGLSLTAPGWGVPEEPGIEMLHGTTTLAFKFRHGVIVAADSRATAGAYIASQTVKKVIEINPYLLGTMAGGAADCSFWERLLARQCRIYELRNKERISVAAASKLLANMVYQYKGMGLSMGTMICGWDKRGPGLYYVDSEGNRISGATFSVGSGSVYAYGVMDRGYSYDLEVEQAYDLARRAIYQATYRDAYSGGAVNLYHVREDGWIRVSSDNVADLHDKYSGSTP
Method: After incubation, production of hydrolyzed 7-amido-4-methyl-coumarin (AMC) groups was measured using a WALLAC Victor^2 1420 Multilabel Counter with an excitation filter of 355 nm and an emission filter of 460 nm (Perkin Elmer Life Sciences, Turku, Finland).
The inhibitory activity of the compounds was calculated based on vehicle control). This technique monitors the hydrolytic release of a coumarin species from a synthetic peptide substrate.
The assay was conducted by using a fluorogenic peptide as substrate to test synthesized compounds for inhibitory activity against the chymotrypsin-like activity of the purified rabbit 20S proteasome. Briefly, 70 ng of purified 20S proteasome was incubated with 20 μM Suc-Leu-Leu-Val-Tyr-AMC for 1 hour at 37° C. in 100 μl of assay buffer (50 mM Tris-HCl, pH 7.6) with or without inhibitors. After incubation, production of hydrolyzed 7-amido-4-methyl-coumarin (AMC) was measured using a WALLAC Victor2 1420 Multilabel Counter with an excitation filter of 355 nm and an emission filter of 460 nm (Perkin Elmer Life Sciences, Turku, Finland). The inhibitory activity of the compounds was calculated based on vehicle control.

[2] = system: MCF-7 breast cancer cells; assay: MTT metabolism assay; format: cell-based, human; conditions: Homo sapiens
Method: (§1) Cells were plated in 96-well plates in 100 μl medium and allowed to attach overnight. […] Media was aspirated after 24 or 72 hours and replaced with 100 μl complete media containing 1 mg/ml MTT and incubated for three hours at 37° C. in 5% CO2 humidified incubator. Media was then aspirated and DMSO was added. Cells were incubated for 10 min at room temperature while shaking, and the absorbance was determined at 540 nm using a μQuant spectrophotometric plate reader (Bio-TEK, Winooski, Vt.).
Cells were plated in 96-well plates in 100 μl medium and allowed to attach overnight. Cells were then incubated for 72 h with varying concentrations of PI-083, YG1-080, YG1-075, HL2-090-2, HL2-090-4, HL2-090-6, and HL2-090-9 or vehicle control (DMSO). Media was aspirated and replaced with 100 μl complete media containing 1 mg/ml MTT and incubated for three hours at 37° C. in 5% CO2 humidified incubator. Media was then aspirated and DMSO was added. Cells were incubated for 10 min at room temperature while shaking, and the absorbance was determined at 540 nm using a μQuant spectrophotometric plate reader (Bio-TEK, Winooski, Vt.).

A549 lung cancer cells = assay: MTT metabolism assay; format: cell-based; conditions: Homo sapiens, mean ± SD of 3 to 5 experiments, read-out: IC50 for cell viability measured by MTT assay
Method: as §1

CaLu-1 lung cancer cells = assay: MTT metabolism assay; format: cell-based; conditions: Homo sapiens, mean ± SD of 3 to 5 experiments, read-out: IC50 for cell viability measured by MTT assay
Method: as §1

[3] = system: DU-145 prostate cancer cells; assay: MTT metabolism assay; format: cell-based; conditions: Homo sapiens, read-out: IC50 for cell viability measured by MTT assay
Method: as §1

[4] = system: HPDE6-C7 (C7) pancreatic epithelial cells; assay: MTT metabolism assay; format: cell-based; conditions: Homo sapiens, HPDE6c7, mean ± SD of 3 to 5 experiments, read-out: IC50 for cell viability measured by MTT assay
Method: as §1

[5] = system: HPDE6-C7-Kras (C7-Kras) pancreatic cancer cells; assay: MTT metabolism assay; format: cell-based; conditions: Homo sapiens, Pancreatic cancer cell, mean ± SD of 3 to 5 experiments, read-out: IC50 for cell viability measured by MTT assay
Method: as §1

[6] = system: LNCaP prostate cancer cells; assay: MTT metabolism assay; format: cell-based; conditions: Homo sapiens, mean ± SD of 3 to 5 experiments, read-out: IC50 for cell viability measured by MTT assay
Method: as §1

[7] = system: MCF-10A breast epithelial cells; assay: MTT metabolism assay; format: cell-based; conditions: Homo sapiens, mean ± SD of 3 to 5 experiments, read-out: IC50 for cell viability measured by MTT assay
Method: as §1

[8] = system: RPMI-8226 multiple myeloma cells; assay: MTT metabolism assay; format: cell-based; conditions: Homo sapiens, mean ± SD of 3 to 5 experiments, read-out: IC50 for cell viability measured by MTT assay
Method: as §1

[9] = system: T80 ovarian epithelial cells; assay: MTT metabolism assay; format: cell-based; conditions: Homo sapiens, Epithelial cell, mean ± SD of 3 to 5 experiments, read-out: IC50 for cell viability measured by MTT assay
Method: as §1

[10] = system: U266 multiple myeloma cells; assay: MTT metabolism assay; format: cell-based; conditions: Homo sapiens, U-266, mean ± SD of 3 to 5 experiments, read-out: IC50 for cell viability measured by MTT assay
Method: as §1

[11] = system: MCF-7 breast cancer xenografts; assay: Antitumor study of human tumor xenografts in nude mice (MCF-7); format: in vivo; conditions: 1 mpk i.p. 2× weekly; for average tumor size of MCF-7 derived xenografts: start at about 200 mm^3
Method: (§2) Nude mice (Charles River Laboratories, Wilmington, Mass.) were maintained and treated in accordance with the Institutional Animal Care and Use Committee procedures and guidelines. Seven days before inoculation with MCF-7 cells, the animals were fully anesthetized for subcutaneous implantation of estradiol pellets (0.25 mg per pellet, 60-day release; Innovative Research of America, Sarasota, Fla.) on the dorsal surface of mice. Exponentially growing MCF-7 and A549 cells were harvested via trypsinization, pelleted at 300 g for 5 minutes, resuspended in sterile PBS (Invitrogen) at 10^7 cells per 100 μl, and injected into each flank of mice. The tumor xenografts were monitored with an electronic caliper every other day for 16 days. Tumor volume was calculated using the formula V=W^2L, where width is the largest diameter and length is the smallest diameter. When the tumors reached ˜200 mm^3, the animals were randomized and treatment schedules were implemented. […] 2 hours after the last injections animals were sacrificed via CO2 inhalation, and then tumors and livers were harvested and snap frozen in liquid N2.

[12] = system: A549 lung cancer xenografts; assay: Antitumor study of human tumor xenografts in nude mice (A549); format: in vivo; conditions: 1 mpk i.p. 2× weekly; for average tumor size of A549-derived xenografts: start at about 200 mm^3
Method: as §2

[13] = target: T2, tumor T-L activity (A549 tumors) (Homo sapiens, UniProt Q99436); assay: Proteasome activity in A549 tumor lysates after in vivo treatment; set-up: species or system nude mice; conditions: mouse, ip; A549 tumors extracted 2 hours after last i.p. injection (1 mpk), vs DMSO-treated controls
T2 construct: from tissue; host or cells: A549 human lung tumour xenografts grown in nude mice
Method: (§3) To determine proteasome activity in whole cell extracts from cultured cells (5 μg) or tumor and liver tissue extracts (30 μg) from nude mice, the same assay was used except that the buffer was changed to 20 mM HEPES, 0.5 mM EDTA, pH 8.0.
(§4) Whole cell extracts were prepared as follows: Cells were harvested, washed with PBS twice, and homogenized in a lysis buffer (50 mM Tris-HCl, pH 8.0, 5 mM EDTA, 150 mM NaCl, 0.5% NP-40) for 30 min at 4° C. Cell extracts from tumors and livers of nude mice were prepared in 50 mM HEPES, 0.5 mM EDTA, pH 8.0. Cell lysates were centrifuged at 12,000 g for 15 min, and the supernatants were collected as whole cell extracts.
(§5) Nude mice (Charles River Laboratories, Wilmington, Mass.) were maintained and treated in accordance with the Institutional Animal Care and Use Committee procedures and guidelines. […] Exponentially growing MCF-7 and A549 cells were harvested via trypsinization, pelleted at 300 g for 5 minutes, resuspended in sterile PBS (Invitrogen) at 10^7 cells per 100 μl, and injected into each flank of mice. The tumor xenografts were monitored with an electronic caliper every other day for 16 days. Tumor volume was calculated using the formula V=W^2L, where width is the largest diameter and length is the smallest diameter. When the tumors reached ˜200 mm^3, the animals were randomized and treatment schedules were implemented. […]

[14] = target: T3, hepatic CT-L, T-L, and PGPH activities (Mus musculus, UniProt O09061+O55234+P70195+Q60692); assay: Proteasome activities in livers of tumor-bearing mice after in vivo treatment; set-up: species or system nude mice; conditions: livers extracted 2 hours after last i.p. injection (1 mpk)
T3 construct: from tissue; host or cells: liver of tumour-bearing nude mice (Charles River)
Method: as §3, §4, §5

[15] = target: tumor PGPH activity (A549 tumors) (Homo sapiens, UniProt P28072); assay: Proteasome activity in A549 tumor lysates after in vivo treatment
Method: as §3, §4, §5

[16] = MCF7, 24 h, MCF-7, 24 h, mean ± SD of 3 to 5 experiments, read-out: IC50 for cell viability measured by MTT assay
[17] = MCF7, 72 h, MCF-7, 72 h, mean ± SD of 3 to 5 experiments (Table 3), read-out: IC50 for cell viability measured by MTT assay

SMILES	IC50 [2, 16]	IC50 [2, 17]	IC50 (A549 lung cancer cells; A549, 24 h)	IC50 (A549 lung cancer cells; A549, 72 h)	IC50 (CaLu-1 lung cancer cells; CaLu-1, 24 h)	IC50 (CaLu-1 lung cancer cells; CaLu-1, 72 h)	IC50 ([3]; DU-145, 24 h)	IC50 ([3]; DU-145, 72 h)	IC50 ([4]; C7, 24 h)	IC50 ([4]; C7, 72 h)	IC50 ([5]; 24 h)	IC50 ([5]; 72 h)	IC50 ([6]; 24 h)	IC50 ([6]; 72 h)	IC50 ([7]; 24 h)	IC50 ([7]; 72 h)	IC50 ([8]; RPMI-8226, 24 h)	IC50 ([8]; RPMI-8226, 72 h)	IC50 ([9]; T80, 24 h)	IC50 ([9]; T80, 72 h)	other results
CC(C)C[C@H](NC(=O)[C@H](Cc1ccccc1)NC(=O)c1cnccn1)B(O)O [Bortezomib, reference compound]	> 30 µM	8.6 ± 1.41 µM	> 30 µM	0.41 ± 0.07 µM	> 30 µM	0.022 ± 0.002 µM	> 30 µM	0.025 ± 0.002 µM	> 30 µM	0.032 ± 0.001 µM	> 30000 nM	28 ± 6 nM	> 30 µM	0.057 ± 0.004 µM	> 30 µM	0.15 ± 0.074 µM	0.049 ± 0.025 µM	0.026 ± 0.003 µM	> 30000 nM	14 ± 1 nM	difference in potency between bortezomib and PI-083 ([1]; CT-L inhibition): 100 fold; IC50 ([10]; U266, 24 h): > 30 µM; antitumor effect in MCF-7 xenografts, in words [11]: appeared to be ineffective in the nude mouse model; average tumor size of MCF-7 derived xenografts [11]: 1,448±145 mm^3; average tumor size of A549-derived xenografts [12]: 864±207 mm^3; inhibition at 1 mg/kg [13]: 0%; effect on proteasome activities in livers of tumor-bearing mice [14]: significantly inhibited hepatic CT-L, T-L, and PGPH activities; inhibition of tumor PGPH activity ([15]; A549 tumors extracted 2 hours after last i.p. injection (1 mpk), vs DMSO-treated controls): 68%
O=C1C(Cl)=C(Nc2ccc(S(=O)(=O)Nc3ccccn3)cc2)C(=O)c2ccccc21 [PI-083, 4-(3-chloro-1,4-dioxo-1,4-dihydronaphthalen-2-ylamino)-N-(pyridin-2-yl)benzenesulfonamide]	4.5 ± 0.82 µM	2.2 ± 1.1 µM	41 ± 17 µM	11 ± 6.7 µM	7.3 ± 0.43 µM	4.9 ± 1.2 µM	8.6 ± 0.63 µM	5 ± 0.72 µM	5.1 ± 0.53 µM	4.2 ± 1.6 µM	2400 ± 230 nM	1900 ± 200 nM	14 ± 2.8 µM	5.2 ± 1.1 µM	17 ± 0.86 µM	4.2 ± 2.1 µM	7.4 ± 0.38 µM	10 ± 4 µM	2700 ± 530 nM	1700 ± 390 nM	IC50 ([1]; PI-083 derivatives (Table 7, naphthoquinone library), purified rabbit 20S proteasome, read-out: IC50 (μM) Chymotrypsin-like activity): 1.2 ± 1 µM; IC50 ([1]; purified 20S rabbit proteasome, Table 4: means of 3 experiments ± standard error, read-out: IC50 for CT-L activity in vitro): 1 µM; IC50 ([2]; MCF7, 72 h, MCF-7, 72 h (Table 6), read-out: IC50 for cell viability measured by MTT assay in MCF-7 human breast cancer cells): 2.31 ± 0.1 µM; IC50 ([10]; U266, 24 h): 23 ± 1.7 µM; IC50 ([10]; U266, 72 h): 7 ± 1.5 µM; tumor growth inhibition, MCF-7 xenografts [11]: 84%; average tumor size of MCF-7 derived xenografts [11]: about 396±137 mm^3; tumor growth inhibition, A549 xenografts [12]: 54%; average tumor size of A549-derived xenografts [12]: about 511±134 mm^3; inhibition at 1 mg/kg [13]: 12%; effect on proteasome activities in livers of tumor-bearing mice [14]: did not inhibit liver proteasome activities; inhibition at 1 mg/kg ([15]; A549, mouse, ip, read-out: inhibition of tumor PGPH activity): 34%
